Assay: wn = mass fraction of the nth substance listed
Conditions: 101.3 kPa, Liquid, Vibrating tube method

NCCCO [3-amino-1-propanol] + O
mass density [kg/m3]
Conditions	w1 = 0.1	w1 = 0.2	w1 = 0.3	w1 = 0.41	w1 = 0.51	w1 = 0.61	w1 = 0.7	w1 = 0.8	w1 = 0.91	w1 = 1
293.15 K	998.7	1002.2	1005.9	1008.8	1011.3	1015.4	1014.9	1009.8	1001.4	987.5
298.15 K	997.3	1000.4	1003.7	1006	1008.2	1011.8	1011.2	1005.9	997.5	983.6
303.15 K	995.7	998.4	1001.3	1003.1	1005	1008	1007.3	1002	993.5	979.6
308.15 K	993.9	996.3	998.8	1000.1	1001.8	1003.9	1003.4	998	989.5	975.5
313.15 K	991.9	994	996.2	997.1	998.5	1001	999.2	994	985.5	971.5
318.15 K	989.7	991.6	993.3	993.9	995	997.2	995.6	990	981.5	967.5
323.15 K	987.3	989	990.6	990.6	991.5	993.3	991.7	986	977.5	963.4
328.15 K	984.8	986.3	987.6	987.9	988	989.5	987.8	981.9	973.4	959.3
333.15 K	983	983.5	984.5	984.5	984.4	985.6	983.9	977.7	969.3	955.8
338.15 K	980.3	980.5	981.3	981.9	980.8	981.6	979.9	973.2	965.2	951.7
343.15 K	977.5	977.5	978	978.3	977.5	977.6	975.8	969.1	961	947.6
348.15 K	974.5	974.3	974.6	974.7	972.9	973.6	971.6	965.1	956.9	943.5
353.15 K	971.2	971	971.1	971.1	970.8	969.5	967.4	961.2	952.7	939.3

From the NIST ThermoML archive (doi:10.1021/acs.jced.5b00412)
